Laboratory results as given in patent publication US12344587B2, “Synthetic retinoids for use in RAR activation” (UNIVERSITY OF DURHAM, priority 2019, dated 2025).
Values after ≈ are worked out from the molar mass of the structure shown.

Columns and labels:
[1] = tested on: retinoic acid response element (RARE); assay: X-Gal RA based reporter assay (genomic activity); assay type: cell-based; conditions: for Genomic Activity (X-Gal RA Based Reporter Assay) Efficacy (Emax) / EC50: Sil-15 reporter cells, overnight incubation; for EC50: read-out: Genomic Activity (X-Gal RA Based Reporter Assay) Potency (EC50); for Genomic activity and potency compared to retinoic acid (ATRA): X-Gal assay, versus ATRA
Description: The genomic activity of synthetic retinoids was evaluated by determining their efficiency of inducing transcription using the X-Gal Assay. The X-Gal Assay utilizes Sil-15 reporter cells in which the transcription of the LacZ gene is under control of a promoter linked to a retinoic acid response element (RARE). After treatment of the reporter cells with retinoids, the ability of the compounds to induce transcription can be attained by monitoring and quantifying the activity of β-galactosidase produced by the reporter cells.
Sil-15 cells were plated at 100,000 cells per well in 96-well plates coated in 0.1% gelatin. The following day, serial dilutions of retinoid ligands, prepared in Dulbecco's Modified Eagle's Medium (DMEM) containing 10% foetal calf serum (FCS) were added at concentrations from 10^−6 M to 10^−14 M and the plates were incubated overnight. All concentrations for the ATRA standard curve and the other retinoid ligands were tested in triplicate.
The next day, the assay plates were washed twice with phosphate buffered saline (PBS), fixed with 100 μl per well of 1% glutaraldehyde and 1 mM MgCl2 in PBS for 15 minutes and washed twice with PBS. β-galactosidase activity was detected by the addition of 100 μl of freshly-prepared 0.2% X-Gal in 1 mM MgCl2, 3.3 mM potassium ferricyanide and 3.3 mM potassium ferrocyanide in PBS per well. Plates were incubated for 6 hours at 37° C. in 5% CO2 and colour change was detected by reading the plates at 650 nm on an Emax Precision Microplate Reader (Molecular Devices).

[2] = Turbidimetric aqueous solubility; assay type: physicochemical; conditions: aqueous buffer, kinetic from dmso stock, 0.01 M phosphate buffered saline pH 7.4, 1% DMSO, 37° C.
Description: Test compound (10 mM in DMSO) is serially diluted to give solutions of 0.1, 0.3, 1 and 3 mM in DMSO. Each test compound concentration is then further diluted 1 in 100 in buffer (0.01 M phosphate buffered saline pH 7.4) so that the final DMSO concentration was 1% and the final test compound concentrations were 1, 3, 10, 30 and 100 μM. The experiment was performed at 37° C. and each concentration sample was incubated in 7 replicate wells. The plates were incubated for 2 hr at 37° C. before the absorbance was measured at 620 nm. The solubility of the sample was estimated from the concentration of test compound that produced an increase in absorbance above vehicle control (i.e., 1% DMSO in buffer).

SH-SY5Y cells = assay: Induction of neurite outgrowth; assay type: cell-based; conditions: 10 nM, 5 days; for fold induction at 0.01 µM: Homo sapiens, 120 h, read-out: Neurite Outgrowth Fold increase
Description: SY—SY5Y cells were plated at 10,000 cells/well in 12-well plates containing acid-treated/poly-L-lysine-coated coverslips. After 24 hours, each retinoid was added to the medium at a concentration of 10 nM and the plates were incubated for 5 days. After retinoid treatment, SH-SY5Y cells on coverslips were washed twice in PBS, fixed in 4% paraformaldehyde (PFA) for 20 minutes at room temperature, and washed twice with PBS.
For immunocytochemical staining of neurites, cells on coverslips were washed three times in PBS, and incubated in blocking solution (10% donkey serum and 0.1% triton X-100 in PBS) for 1 hour at room temperature. Cells were then labelled by incubation overnight at 4° C. with β-III tubulin primary antibody (Sigma-Aldrich) diluted 1:1000 in blocking buffer. Following incubation overnight, cells were washed three times with PBS containing 0.1% Triton X-100 solution (PBST) before incubation with anti-mouse monoclonal secondary antibody (1:300 in PBST; Jackson Immunoresearch) for 2 hours at room temperature. Finally, after three washes in PBST and a final wash in PBS, the coverslips were mounted on slides and stored at 4° C.
ImageJ software with the NeuronJ plugin was used to quantify neurite outgrowth on stained cells. For each experiment, 10 different randomly selected images were taken from each cover slip using a Nikon Eclipse E400 fluorescence microscope. Each image was converted into an 8-bit image (necessary for the NeuronJ plugin) and optimised with the brightness and contrast tool in GIMP (GNU Image Manipulation Program). For each image, individual traces were drawn for each clearly-identifiable neurite using the tracing tool in the NeuronJ plugin. Neurite length was measured in pixels and transformed into the corresponding length in μm depending on the magnification used. The average neurite length for each image was calculated by dividing total neurite length by the total number of neurites per image. Ten images per cover slip were measured and the mean calculated for the coverslip overall. Coverslips were in triplicate for each retinoid and concentration.

MDR1 = assay: MDCK-MDR1 permeability assay; assay type: in vitro ADME; conditions: dog, pH 7.4, 60 min
Description: Thus, this assay is a valuable in vitro surrogate for blood-brain permeability and CNS exposure
MDCK-MDR1 cells obtained from the NIH (Rockville, MD, USA) are used between passage numbers 6-30. Cells are seeded onto Millipore Multiscreen Transwell plates at 3.4×10^5 cells/cm^2. The cells are cultured in DMEM and media is changed on day 3. On day 4 the permeability study is performed. Cell culture and assay incubations are carried out at 37° C. in an atmosphere of 5% CO2 with a relative humidity of 95%. On the day of the assay, the monolayers are prepared by rinsing both apical and basolateral surfaces twice with Hanks Balanced Salt Solution (HBSS) at the desired pH warmed to 37° C. […] Test compound permeability is assessed in duplicate. […] Test and control compounds are quantified by LC-MS/MS cassette analysis using a 7-point calibration with appropriate dilution of the samples. The starting concentration (C0) is determined from the dosing solution and the experimental recovery calculated from C0 and both apical and basolateral compartment concentrations.
The permeability coefficient (Papp) for each compound is calculated from the following equation: […]
Where dQ/dt is the rate of permeation of the drug across the cells, C0 is the donor compartment concentration at time zero and A is the area of the cell monolayer. […] An efflux ratio (ER) is calculated from mean A-B and B-A data.

| Compound | Genomic Activity (X-Gal RA Based Reporter Assay) Efficacy (Emax) [1] | EC50 [1] | Genomic activity and potency compared to retinoic acid (ATRA) [1] | solubility at 2 h [2] | Average neurite length compared to cells treated with ATRA (SH-SY5Y cells) | fold induction at 0.01 µM (SH-SY5Y cells) | Papp at 60 min, 10 μM (MDR1) | efflux ratio at 60 min, 10 μM (MDR1; from mean A-B and B-A data, read-out: ER (efflux ratio)) |
| --- | --- | --- | --- | --- | --- | --- | --- | --- |
| CC1(C)CCC(C)(C)c2cc(C#Cc3ccc(C(=O)O)nc3)ccc21 [DC528, 5-[2-(5,5,8,8-tetramethyl-5,6,7,8-tetrahydronaphthalen-2-yl)ethynyl]pyridine-2-carboxylic acid] | 206.5 | 0.146 nM | increased genomic activity and potency | 20 µM (≈ 6.67 µg/mL) | significantly larger average neurite length | 2.2 |  |  |
| CC1(C)CCC(C)(C)c2cc(C#Cc3ccc(C(=O)O)cc3F)ccc21 [DC526, 3-Fluoro-4-[2-(5,5,8,8-tetramethyl-5,6,7,8-tetrahydronaphthalen-2-yl)ethynyl]benzoic acid] | 149.1 | 0.0581 nM | increased genomic activity and potency | 20 µM (≈ 7.01 µg/mL) | significantly larger average neurite length | 2.1 |  |  |
| CC1(C)CCC(C)(C)c2nc(C#Cc3ccc(C(=O)O)cc3)cnc21 [DC645, 4-[2-(5,5,8,8-Tetramethyl-5,6,7,8-tetrahydroquinoxalin-2-yl)ethynyl]benzoic acid] | 185.9 | 0.0697 nM | increased genomic activity and potency | > 100 µM | significantly larger average neurite length | 2.3 | 34.9 ×10⁻⁶ cm/s | 0.6 |
